Tested on: sapstain
Conditions: fresh cut hackberry lumber dipped in aqueous solutions (1,3,5,7 and 10% boric acid; DOT at the same level of boric oxide); stacked for air drying; examined after six months of seasoning and planing
Experimental: Aqueous solutions containing 1,3,5,7, and 10% boric acid according to my preferred embodiment were prepared and used to treat fresh cut hackberry lumber by dipping. Aqueous disodium octaborate tetrahydrate solutions containing the same level of boric oxide were prepared and used in the same manner. This treated lumber, and untreated controls, was stacked in accordance with standard sawmill air drying practice. After six months of seasoning the lumber was planed, and examined for sapstain control.

`O.O.O.O.O=BOB1OB(OB=O)OB2OB([O-])OB([O-])OB(O1)O2.[Na+].[Na+]` [DOT, disodium octaborate tetrahydrate] was tested, and the sapstain control was “superior to the untreated controls”.
In the case of `OB(O)O` [boric acid], the sapstain control is reported as “superior sapstain control compared to the DOT concentrations”.
